From patent US7396817B2, “Biologically active peptides comprising Isoleucyl-valyl-threonyl-asparaginyl-threonyl-threonine (IVTNTT)” (CMS Peptides Patent Holding Company Limited, priority 2003, dated 2008)
Marks after values point to notes of the source that are not given here. No end group written: not given here.

Key:
HBeAg = conditions: at 400 μg/ml, day 8, 2.2.15 cell supernatant
Procedure: (§1) a. Inhibitory effect of CMS017 on HBsAg and HBeAg at maximum non-toxic concentration in vitro 2.2.15 cells, growing at logarithmic phase, were harvested and re-suspended in MEM culture medium (containing 10% calf serum, […], and 100 U/ml streptomycin) as a 2×10^6/ml cell suspension. The suspension was inoculated into a 24-well cell culture plate with 1.5 ml per well, and incubated at 37° C., 5% CO2 for 48 hours. The test substance CMS017 was diluted and added to the 2.2.15 cultures to final concentrations of 0, 50, 100, 200, 400, 800 μg/ml, with 3 parallel samples per concentration. The cells were then incubated at 37° C., 5% CO2. The supernatant was refreshed on days 3 and 6. The cytotoxicity of CMS017 on 2.2.15 cell cultures was then observed with MTT staining on day 8, and the maximum non-toxic concentration of CMS017 was determined.
(§2) The preparation and incubation of cell suspensions were repeated as above with the determined maximum non-toxic concentration of CMS017, and with parallel negative and positive controls (lamivudine with the same concentration as CMS017 was used as the positive control). On the 8th day, the titers of HBsAg and HBeAg in the cell culture supernatants were determined by ELISA^[1,2], using conditions described by the kit supplier. The inhibition percentage of each test substance was calculated as shown below. Inhibitory percentage (%)=(blank control−sample)/blank control×100 Cell survival percentage (%)=sample (A595−A650)/blank control (A595−A650)×100

HBsAg = conditions: at 400 μg/ml, day 8, 2.2.15 cell supernatant
Procedure: as §1, §2

hepG 2 2.2.15 cell line = experiment: Cytotoxicity of CMS017 on 2.2.15 cell cultures, MTT staining (maximum non-toxic concentration); format: cell-based; conditions: 2.2.15 cells, MTT staining on day 8
Procedure: as §1

HBV-DNA = experiment: Inhibition of supernatant HBV-DNA in 2.2.15 cells (fluorescent quantitative PCR); conditions: for IC50 (HBV-DNA): 2.2.15 cell supernatant; for IC50 (HBV-DNA) / inhibitory percentage for supernatant HBV-DNA: day 8; for inhibitory percentage for supernatant HBV-DNA: at the concentration of 160 μg/ml
Procedure: (§3) Cell suspensions were prepared and incubated as described in Method 1 above. […] The culture media, with added test substance, were exchanged on days 3 and 6. On the 8th day, the supernatants of the cell cultures were harvested for the determination of HBV-DNA concentrations by fluorescent quantitative PCR^[3,4], using the method described by the kit supplier. The cultured cells were taken for analysis of the cytotoxicity of each test substance. The inhibitory percentage of the drug was calculated in the following manner: Inhibitory percentage (%)=(blank control−sample)/blank control×100 Cell survival percentage (%)=sample (A595−A650)/blank control (A595−A650)×100
(§4) TC50 was defined as the test substance concentration at which the percentage of surviving cells in the test group is 50% of that of the control group. IC50 was the test substance concentration at which the percentage of reduction of HBV-DNA concentration is 50% compared to control. These were determined by plotting the corresponding percentage against the test substance concentrations. The selection index (SI) was calculated as TC50/IC50. The bigger the value of SI, the higher the inhibition activity of test substance is and the less cytotoxic it is.

[1] = Cytotoxicity (cell survival, TC50) in the HBV-DNA experiment; format: cell-based; conditions: human, HepG2 2.2.15 cells, day 8, concentration at which cell survival is 50% of control
Procedure: as §3, §4

[2] = test system: T lymphocyte transformation; experiment: ConA-induced T lymphocyte transformation of spleen cells from treated mice (MTT); format: in vivo, BALB/c mice; conditions: for stimulation index (X ± SD): BALB/c mice, spleen cells + ConA
Procedure: The day after the last test substance administration, the mice were sacrificed by cervical dislocation. The spleen was isolated aseptically and manually dispersed in cold D-Hank's solution using an injection needle. The dispersed cell suspension was further sieved through a 100 gauge 150 μm diameter stainless steel sieve. After centrifugation at 200 g for 10 minutes, the supernatant was discarded. […] The suspended cells were collected by centrifugation at 150 g for 10 minutes. […] The cells were then pelleted by centrifugation at 150 g for 10 minutes. […] The incubation was continued for 4 hours.

Nc1ccn([C@@H]2CS[C@H](CO)O2)c(=O)n1 [Lamivudine, lamivudine, reference compound]
Inhibition ratio of HBeAg (HBeAg): 35.4%* | Inhibition ratio of HBsAg (HBsAg): 29.6%*

IVTNTT [CMS017, L-Isoleucyl-L-valyl-L-threonyl-L-asparaginyl-L-threonyl-L-threonine]
maximum non-toxic concentration (hepG 2 2.2.15 cell line): 400 µg/mL | Inhibition ratio of HBeAg (HBeAg): 62.2%* | Inhibition ratio of HBsAg (HBsAg): 68.6%* | IC50 (HBV-DNA) (HBV-DNA): 2.3 µg/mL | SI (selection index, TC50/IC50) (HBV-DNA): 577.7 | inhibitory percentage for supernatant HBV-DNA (HBV-DNA): 90.8% | CC50 at 192 h [1]: 1330 µg/mL | stimulation index (X ± SD) ([2]; 50 μg/kg/day i.p. for 28 days): 2.82 ± 0.41 | effect on T lymphocyte transformation (in words) ([2]; 50 μg/kg/day, compared with the saline control group (P<0.05)): enhance T lymphocyte transformation | stimulation index (X ± SD) ([2]; 200 μg/kg/day i.p. for 28 days): 2.65 ± 0.51

vidarabine monophosphate [Ara-AMP, reference compound]
IC50 (HBV-DNA) (HBV-DNA): 11.4 µg/mL | SI (selection index, TC50/IC50) (HBV-DNA): 5.6 | inhibitory percentage for supernatant HBV-DNA (HBV-DNA): 89.1%*
